Test results: patent US20180221343A1, “PHARMACEUTICAL COMPOSITION FOR PREVENTING OR TREATING MACULAR DEGENERATION” (KOREA RESEARCH INSTITUTE OF CHEMICAL TECHNOLOGY, priority 2011, published 2018)

Key:
[1] = test system: rat corneal epithelial wound; assay: Corneal Wound Healing Assay (1); type: in vivo, SD rats; settings: topical 10 mg/ml (1%) every 6 hour; observed at 0 and 18 hours
Protocol: (§1) SD rats (male, 8 weeks, 250 g) were used. Animal study protocol was in accordance with the Association for Research in Vision and Ophthalmology Statement for the Use of Animals in Ophthalmic and Visual Research. All animals were housed in individual cages and maintained under standard conditions (12 hour light-dark cycle).
(§2) 2. Corneal Epithelium Removal Rats were anesthetized by Zoletil® (50 mg/kg, Tiletamina 25 mg, Zolazepam 25 mg; Vibrac, Carros, France) and Rompun® (10 mg/kg, Bayer, France). The cornea was anesthetized by topical 0.5% proparacaine (Alcaine®; Alcon, Fort Worth, Tex., USA). After applying 0.5% proparacaine drops, 5.0 mm Trephine Blade® (Katena, Denville, N.J., USA) was placed and fixed firmly on the corneal surface. One drop of 20% ethanol were put into the tephine well and left in place for 30 seconds, then absorbed with a dry cellulose sponge (Merocel®; Medtronic Solan, Jacksonville, Fla., USA) and irrigated with normal saline. And the epithelium was removed in 6.0 mm diameter.
The drugs were each topically applied in 10 mg/ml (1%) concentration (in 5% DMSO, 10% PEG (Mw 400) and 85% saline (0.9% NaCl)) in every 6 hour.
(§3) The corneal wounds were captured by digital camera under cobalt blue light and the defect area was analyzed by Image J software (Ver 4.1, NIH). The significance between Vehicle and each group was analyzed by paired T-test, and the significance of the test was analyzed by One Way ANOVA analysis.

[2] = test system: rat corneal epithelial wound; assay: Corneal Wound Healing Assay (2); type: in vivo, SD rats; settings: topical 3 and 6 mg/ml every 6 hour; observed at 0 and 18 hours
Protocol: as §1
as §2, with “Rats” for “2. Corneal Epithelium Removal Rats”
The drugs were each topically applied in 3 mg/ml (0.3%) and 6 mg/ml (0.6%) concentrations (in 5% DMSO, 10% PEG (Mw 400) and 85% saline (0.9% NaCl)) in every 6 hour, respectively.
as §3

corneal angiogenesis [3] = assay: Inhibitory effects against corneal angiogenesis, subconjunctival injection and eye drop-administration; type: in vivo, Sprague Dawley rats; settings: subconjunctival injection 20 μl plus eye drop 50 μl; KR 0.3 mg/ml, Avastin 10 mg/ml
Protocol: The tests were performed by using Sprague Dawley rats (8 weeks old, male) as animals having corneal damage (15 rats for the experiment group; and 1 rat for normal group, respectively). The corneal damage was induced by applying a cotton swab coated with silver nitrate to the surface of the rat corneas, as as to induce a damage having a diameter of 2 mm in the central cornea. On the third day after inducing the corneal damages, we confirmed the establishment of corneal angiogenesis-inducing models and then subconjunctivally injected a solution (20 μl) prepared by dissolving the compound of Preparation Example 23, i.e., (2R,3R,4S)-6-amino-4-[N-(4-chlorophenyl)-N-(1H-imidazol-2-ylmethyl)amino]-3-hydroxy-2-methyl-2-dimethoxymethyl-3,4-dihydro-2H-1-benzopyran (KR-31831) in phosphate buffered saline (PBS) containing 10% PEG 400, in the concentration of 0.3 mg/ml. […] The evaluations quantifying the photographs of FIG. 1 were performed by using the Image J (NIH, USA) program and the results thereof were shown in FIG. 2.
Except for performing both the subconjunctival injection and the eye drop-administration of (2R,3R,4S)-6-amino-4-[N-(4-chlorophenyl)-N-(1H-imidazol-2-ylmethyl)amino]-3-hydroxy-2-methyl-2-dimethoxymethyl-3,4-dihydro-2H-1-benzopyran and Avastin, the inhibitory effects against angiogenesis were evaluated according to the same manners as in Example 1. […]

VEGF receptor 2 (FLK-1) = assay: Expression of VEGF receptor 2 (FLK-1) in corneal tissue by RT-PCR; type: in vivo, rats; settings: subconjunctival injection 20 μl; KR 0.3 mg/ml, Avastin 10 mg/ml
Protocol: The tests were performed for confirming corneal angiogenesis as a marker. To a Trizole™ solution (200 μl), were added each corneal tissue obtained from the rats of Example 1. Total RNAs were isolated and then cDNAs were prepared by using a reverse transcriptase. Each cDNA (5 μl) was mixed with the primer set of FLK-1 and then PCR amplication was performed in a thermocycler under the following conditions; denaturation at 94° C. for 5 minutes, and then 35 cycles of denaturation at 94° C. for 20 seconds, annealing at 58° C. for 1 minute, and extension at 72° C. for 25 seconds. Each PCR product was loaded on 1% agarose gel; and the resulting ethidium bromide fluorescent bands were identified.

corneal angiogenesis [4] = assay: Inhibitory effects against corneal angiogenesis in animal models having corneal damage (subconjunctival injection); type: in vivo, Sprague Dawley rats; settings: subconjunctival injection 20 μl; KR 0.3 mg/ml, Avastin 10 mg/ml; 1 week after administration
Protocol: The tests were performed by using Sprague Dawley rats (8 weeks old, male) as animals having corneal damage (15 rats for the experiment group; and 1 rat for normal group, respectively). The corneal damage was induced by applying a cotton swab coated with silver nitrate to the surface of the rat corneas, as as to induce a damage having a diameter of 2 mm in the central cornea. On the third day after inducing the corneal damages, we confirmed the establishment of corneal angiogenesis-inducing models and then subconjunctivally injected a solution (20 μl) prepared by dissolving the compound of Preparation Example 23, i.e., (2R,3R,4S)-6-amino-4-[N-(4-chlorophenyl)-N-(1H-imidazol-2-ylmethyl)amino]-3-hydroxy-2-methyl-2-dimethoxymethyl-3,4-dihydro-2H-1-benzopyran (KR-31831) in phosphate buffered saline (PBS) containing 10% PEG 400, in the concentration of 0.3 mg/ml. In case of the control group, the PBS (20 μl) containing 10% PEG 400 was subconjunctivally injected. As a positive control, a solution (20 μl) prepared by dissolving Avastin (used as an angiogenesis inhibitor) in PBS in the concentration of 10 mg/ml was subconjunctivally injected. The evaluations quantifying the photographs of FIG. 1 were performed by using the Image J (NIH, USA) program and the results thereof were shown in FIG. 2.

retinal angiogenesis = assay: Laser-induced retinal damage model, retinal angiogenesis by dextran-FITC fluorescence; type: in vivo, Brown Norway rats; settings: Avastin 2.5 mg/ml, 10 μl into the vitreous humor; 2 weeks after administration
Protocol: The tests were performed by using Brown Norway rats (8 weeks old, male) as animals having retinal damage (15 rats for the experiment group; and 1 rat for normal group, respectively). The retinal Bruch's membrane of each Brown Norway rat was damaged using a Zeiss 532s laser at the intensity of […], 30 ms. On the third day after the laser-damaging, the drug was administered into the vitreous humor in order to observe the retinal vessels. The compound of the present invention, i.e., (2R,3R,4S)-6-amino-4-[N-(4-chlorophenyl)-N-(1H-imidazol-2-ylmethyl)amino]-3-hydroxy-2-methyl-2-dimethoxymethyl-3,4-dihydro-2H-1-benzopyran was administered with the solutions (10 μl of each solution) obtained by dissolving in PBS containing 30% PEG 400 and 10% DMSO, in the concentrations of 0.1 mg/ml and 0.3 mg/ml. Avastin was administered with the solution (10 μl) obtained by dissolving in PBS in the concentration of 2.5 mg/ml. In case of the control group, the PBS (10 μl) was administered. In addition, (2R,3R,4S)-6-amino-4-[N-(4-chlorophenyl)-N-(1H-imidazol-2-ylmethyl)amino]-3-hydroxy-2-methyl-2-dimethoxymethyl-3,4-dihydro-2H-1-benzopyran was intraperitoneally administered with the solution obtained by dissolving in PBS containing 30% PEG 400 and 10% DMSO, in the dose of 25 mg/kg. 2 weeks after the drug administrations, dextran-FITC was injected into the left ventricle in the dose of 25 mg/kg, followed by enucleating the eye after 5 minutes therefrom; and then fixing in a 10% formalin solution. The cornea and the eye lens were removed from the fixed eye, which was then observed under a fluorescence microscope. Angiogenesis was identified by the intensity and leakage of dextran-FITC in the laser-induced damage site; and the results thereof were shown in FIG. 7. The evaluations quantifying the photographs of FIG. 7 were performed by using the Image J (NIH, USA) program and the results thereof were shown in FIG. 8.

| inhibitory effect on normal healing of rat corneal epithelial wound [1] | inhibitory effect on normal healing of rat corneal epithelial wound [2] | Compound | rate (%) of wound healing compared to vehicle control and KR-31831 (rank) [1] | angiogenesis in comparison with the angiogenesis (100%) of the control group (corneal angiogenesis [3]) [%] | FLK-1 expression in the cornea (control group 100%) (VEGF receptor 2 (FLK-1)) | corneal angiogenesis in comparison with the corneal angiogenesis (100%) of the control group (corneal angiogenesis [4]) [%] | fluorescence intensity at laser-induced damage site (surrounding vessels = 100) (retinal angiogenesis) |
| --- | --- | --- | --- | --- | --- | --- | --- |
| showed inhibitory effect | showed inhibitory effect | CNC1(C)C2CCC(C2)C1(C)C (stereo not shown) [ATG-003] | the second lowest rate (%) of wound healing |  |  |  |  |
| showed inhibitory effect | showed inhibitory effect | Cc1ccc(Nc2nccc(N(C)c3ccc4c(C)n(C)nc4c3)n2)cc1S(N)(=O)=O [Pazopanib] | the least lowest rate (%) of wound healing among the three but lower than the control |  |  |  |  |
| showed inhibitory effect | showed inhibitory effect | Cc1cc(-c2cc(OC(=O)c3ccccc3)ccc2Cl)cc2nnc(Nc3ccc(OCCN4CCCC4)cc3)nc12 [TG100801] | the lowest rate (%) of wound healing |  |  |  |  |
|  |  | Avastin: protein drug used in anti-VEGF antibody injection therapy; used as an angiogenesis inhibitor, positive control |  | 29.3±8.6 | about 59% | 66.4±10.6 | 46±3 |
